Experimental findings from patent US20260200946A1, “KRAS(G12V) INHIBITORS” (Ranok Therapeutics (Hangzhou) Co. Ltd., priority 2022, published 2026) are described below.

For one test, the target named is T1, KRAS(G12V)/SOS1 (Homo sapiens, UniProt P01116, G12V).
T1 construct: purchased Cisbio 63ADK000CB18PEH
Briefly: KRAS(G12V)/SOS1 homogeneous time-resolved fluorescence (HTRF) assay. As to conditions: absence of GTP; 4° C., 3 hours; read-out: HTRF of KRASG12V-SOS1. Type of test: binding. The method, then: Binding of test compounds to KRAS(G12V) target protein, which in turn blocks KRAS(G12V) interaction with the SOS1 protein, was measured in the absences of GTP by homogeneous time-resolved fluorescence using the KRAS-G12V/SOS1 Binding Assay Kit (Cisbio, 63ADK000CB18PEH), following the manufacturer's instructions, except as noted. 3-fold serial dilutions of each test compound were prepared ranging from 20 µM to 1.02 nM. The test compound was mixed and incubated with reaction components, incubated in a sealed plate at 4° C. for 3 hours and fluorescence was measured using a PerkinElmer Envision plate reader. The KRAS(G12V)-SOS1 IC50 values (the concentration of 50% of the maximal inhibition) were calculated using GraphPad Prism 8.0 software.

The subject of another test is SW620 cells. In words: Cancer cell line proliferation (CellTiter-Glo), SW620. Conditions: Homo sapiens, SW-620, SW620 colorectal adenocarcinoma, homozygous G12V, 72 hr. Type of test: cell-based. The procedure:
Cell lines were cultured essentially according to ATCC recommendations. SW620 and NCIH727 cells were plated in 384-well tissue culture plates at 1,000 cells/well and incubated at 37° C./5% CO2 for 72 hr in 40 μl of media. […] Each cell line was then treated with test compounds at various concentrations with a final concentration of 0.5% DMSO/well, and then incubated at 37° C./5% CO2 for 72 hr. 40 μl of CellTiter-Glo® Reagent (Promega Corporation, Madison, WI) was added to each well and processed according manufacturer's protocol. Results were analyzed and IC50 values were calculated in GraphPad 8.0 software.
For orientation: In ATP-based viability assays light output follows the ATP content of the culture.

Another test has as its system NCIH727 cells. Briefly: Cancer cell line proliferation (CellTiter-Glo), NCI-H727. Type of test: cell-based. As to conditions: Homo sapiens, 72 h, NCIH727 lung carcinoid, heterozygous G12V. In outline: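 NCI-H727 cells (1,000/well) were grown 72 h at 37 °C/5% CO2, then exposed to compound at various concentrations (0.5% DMSO final) for a further 72 h. Viability was read by CellTiter-Glo luminescence, and IC50 values were calculated from the dose-response.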

T1 sequence (P01116 1-188 isoform P01116-2 G12V): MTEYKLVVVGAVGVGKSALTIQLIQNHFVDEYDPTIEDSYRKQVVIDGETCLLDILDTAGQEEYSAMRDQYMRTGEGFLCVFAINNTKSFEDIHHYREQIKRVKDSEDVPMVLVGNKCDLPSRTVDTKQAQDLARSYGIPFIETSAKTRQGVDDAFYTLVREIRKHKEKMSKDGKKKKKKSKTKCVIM

`C#Cc1c(F)ccc2cc(O)cc(-c3ncc4c(N5CC6CCC(C5)N6CC)nc(OCC5(CN6CCC(F)CC6)CC5)nc4c3F)c12` [Example 31]: the IC50 on KRAS(G12V)/SOS1 lay within 100 to 1000 nM. The EC50 in the test on SW620 cells and with NCIH727 cells was above 1000 nM throughout.

On to `C#Cc1c(F)ccc2cc(O)cc(-c3ncc4c(N5CC6CCC(C5)N6C(=O)NC(C)C(F)(F)F)nc(OCC5(CN6CCC(F)CC6)CC5)nc4c3F)c12` (stereo not drawn) [Example 32], for which, on KRAS(G12V)/SOS1, the IC50 lay within 100 to 1000 nM. In addition, the EC50 in the test on SW620 cells and with NCIH727 cells was above 1000 nM in each case.

Regarding `C#Cc1c(F)ccc2cc(O)cc(-c3ncc4c(N5CC6CCC(C5)N6S(=O)(=O)CC#N)nc(OCC5(CN6CCC(F)CC6)CC5)nc4c3F)c12` [Example 33], the IC50 at KRAS(G12V)/SOS1 lay in the range of 100 to 1000 nM. The EC50 in the test with SW620 cells and with NCIH727 cells was above 1000 nM in each case.

As to `C#Cc1c(F)ccc2cc(O)cc(-c3nc(OC)c4c(N5CC6CCC(C5)N6C(=O)NC5(C#N)CC5)nc(OCC5(CN6CCC(F)CC6)CC5)nc4c3F)c12` [Example 34], on KRAS(G12V)/SOS1, the IC50 was 100 to 1000 nM. Also, the 50% effective concentration (EC50) with SW620 cells and in the test on NCIH727 cells was 100 to 1000 nM throughout.

As to `C#Cc1c(F)ccc2cc(O)cc(-c3ncc4c(N5CC6CCC(C5)N6C(=O)NC5(C#N)CC5)nc(OCC5(CN6CCC(F)CC6)CC5)nc4c3F)c12` [Example 35], the IC50 on KRAS(G12V)/SOS1 fell in the range of 100 to 1000 nM. In addition, the EC50 in the test on SW620 cells and with NCIH727 cells was 100 to 1000 nM in each case.

Turning to `C#Cc1c(F)ccc2cc(O)cc(-c3ncc4c(N5CC6CCC(C5)N6C(=O)[C@H]5CCN(C(=O)OC)C5)nc(OCC5(CN6CCC(F)CC6)CC5)nc4c3F)c12` [Example 36], the IC50 at KRAS(G12V)/SOS1 was in the range of 100 to 1000 nM. Moreover, the EC50 in the test on SW620 cells and in the test with NCIH727 cells was above 1000 nM throughout.

On to `C#Cc1c(F)ccc2cc(O)cc(-c3nc(OC)c4c(N5CC6CCC(C5)N6C(=O)NCC#N)nc(OCC5(CN6CCC(F)CC6)CC5)nc4c3F)c12` [Example 37], for which, on KRAS(G12V)/SOS1, the IC50 was in the range of 100 to 1000 nM. In addition, the EC50 in the test with SW620 cells and in the test on NCIH727 cells was 100 to 1000 nM in each case.

With `C#Cc1c(F)ccc2cc(O)cc(-c3nc(OC)c4c(N5CC6CCC(C5)N6C(=O)NC(C)C#N)nc(OCC5(CN6CCC(F)CC6)CC5)nc4c3F)c12` (stereo not drawn) [Example 38], the IC50 on KRAS(G12V)/SOS1 is below 100 nM. The EC50 in the test on SW620 cells and in the test with NCIH727 cells was 100 to 1000 nM each time.

Regarding `C#Cc1c(F)ccc2cc(O)cc(-c3ncc4c(N5CC6CCC(C5)N6C(=O)CC(F)(F)F)nc(OCC5(CN6CCC(F)CC6)CC5)nc4c3F)c12` [Example 39], on KRAS(G12V)/SOS1, the IC50 is 100 to 1000 nM. The EC50 in the test on SW620 cells and in the test on NCIH727 cells was above 1000 nM in each case.

As for `C#Cc1c(F)ccc2cc(O)cc(-c3ncc4c(N5CC6CCC(C5)N6C(=O)OC(C)(C)C)nc(OCC5(CN6CCC(F)CC6)CC5)nc4c3F)c12` [Example 40], at KRAS(G12V)/SOS1, the IC50 is 100 to 1000 nM. For the same molecule, the EC50 with SW620 cells and in the test on NCIH727 cells was above 1000 nM in each case.

On to `C#Cc1c(F)ccc2cc(O)cc(-c3ncc4c(N5CC6CCC(C5)N6C(C)=O)nc(OCC5(CN6CCC(F)CC6)CC5)nc4c3F)c12` [Example 41], for which, at KRAS(G12V)/SOS1, the IC50 lay in the range of 100 to 1000 nM. Further, the EC50 in the test with SW620 cells and in the test with NCIH727 cells was above 1000 nM each time.

In the case of `C#Cc1c(F)ccc2cc(O)cc(-c3ncc4c(N5CC6CCC(C5)N6C(=O)OC(C)C)nc(OCC5(CN6CCC(F)CC6)CC5)nc4c3F)c12` [Example 42], the IC50 on KRAS(G12V)/SOS1 fell in the range of 100 to 1000 nM. The concentration for a half-maximal effect (EC50) with SW620 cells and in the test with NCIH727 cells was above 1000 nM throughout.

As to `C#Cc1c(F)ccc2cc(O)cc(-c3ncc4c(N5CC6CCC(C5)N6C(=O)C(C)(C)C)nc(OCC5(CN6CCC(F)CC6)CC5)nc4c3F)c12` [Example 43], the IC50 on KRAS(G12V)/SOS1 was in the range of 100 to 1000 nM. Moreover, the EC50 in the test on SW620 cells and with NCIH727 cells was above 1000 nM each time.

Consider `C#Cc1c(F)ccc2cc(O)cc(-c3nc(OC)c4c(N5CC6CCC(C5)N6C(=O)C5CC5(F)F)nc(OCC5(CN6CCC(F)CC6)CC5)nc4c3F)c12` (stereo not drawn) [Example 44], for which, on KRAS(G12V)/SOS1, the IC50 is below 100 nM. Moreover, the half-maximal effective concentration (EC50) in the test with SW620 cells and in the test with NCIH727 cells was 100 to 1000 nM in each case.

For `C#Cc1c(F)ccc2cc(O)cc(-c3nc(OC)c4c(N5CC6CCC(C5)N6C(=O)C5(C(F)(F)F)CC5)nc(OCC5(CN6CCC(F)CC6)CC5)nc4c3F)c12` [Example 45], at KRAS(G12V)/SOS1, the IC50 is below 100 nM. In addition, the EC50 with SW620 cells and in the test on NCIH727 cells was above 1000 nM throughout.

Regarding `C#Cc1c(F)ccc2cc(O)cc(-c3nc(OC)c4c(N5CC6CCC(C5)N6C(=O)NC5CC5)nc(OCC5(CN6CCC(F)CC6)CC5)nc4c3F)c12` [Example 46], the IC50 on KRAS(G12V)/SOS1 is below 100 nM. Further, the EC50 in the test with SW620 cells and with NCIH727 cells was 100 to 1000 nM throughout.

With `C#CCCC(=O)N1C2CCC1CN(c1nc(OCC3(CN4CCC(F)CC4)CC3)nc3c(F)c(-c4cc(O)cc5ccc(F)c(C#C)c45)ncc13)C2` [Example 47], at KRAS(G12V)/SOS1, the IC50 was below 100 nM. For the same molecule, the EC50 in the test on SW620 cells and in the test on NCIH727 cells was above 1000 nM in each case.

For `C#Cc1c(F)ccc2cc(O)cc(-c3ncc4c(N5CC6CCC(C5)N6C(=O)NC5CCCC5)nc(OCC5(CN6CCC(F)CC6)CC5)nc4c3F)c12` [Example 48], the IC50 on KRAS(G12V)/SOS1 is below 100 nM. For the same molecule, the EC50 with SW620 cells and in the test with NCIH727 cells was above 1000 nM each time.

In the case of `C#Cc1c(F)ccc2cc(O)cc(-c3ncc4c(N5CC6CCC(C5)N6C(=O)NC5CCNC5)nc(OCC5(CN6CCC(F)CC6)CC5)nc4c3F)c12` (stereo not drawn) [Example 49], at KRAS(G12V)/SOS1, the IC50 was below 100 nM. The EC50 in the test with SW620 cells and with NCIH727 cells was above 1000 nM throughout.

For `C#Cc1c(F)ccc2cc(O)cc(-c3nc(OC)c4c(N5CC6CCC(C5)N6C(=O)C5CC5)nc(OCC5(CN6CCC(F)CC6)CC5)nc4c3F)c12` [Example 50], the IC50 on KRAS(G12V)/SOS1 was below 100 nM. Besides, the EC50 in the test on SW620 cells and in the test on NCIH727 cells was above 1000 nM each time.

`C#Cc1c(F)ccc2cc(O)cc(-c3ncc4c(N5CC6CCC(C5)N6C(=O)NC5(C(F)(F)F)CC5)nc(OCC5(CN6CCC(F)CC6)CC5)nc4c3F)c12` [Example 51]: the IC50 on KRAS(G12V)/SOS1 is below 100 nM. The EC50 with SW620 cells and in the test on NCIH727 cells was above 1000 nM throughout.

Take `C#Cc1c(F)ccc2cc(O)cc(-c3nc(OC)c4c(N5CC6CCC(C5)N6C(=O)C(C)C(F)(F)F)nc(OCC5(CN6CCC(F)CC6)CC5)nc4c3F)c12` (stereo not drawn) [Example 52]: the IC50 on KRAS(G12V)/SOS1 was below 100 nM. For the same molecule, the EC50 in the test with SW620 cells and in the test with NCIH727 cells was above 1000 nM in each case.

By EC50 is commonly meant the concentration needed to bring the measured effect to its halfway point.
